± gives the expanded uncertainty stated by the source.
Tests used:
[1] = Crystal; DSC
[2] = Molar enthalpy of transition or fusion; conditions: Crystal; DSC

Question: With `CC[C@@H](C(N)=O)N1CCCC1=O` [(S)-2-(2-oxopyrrolidin-1-yl)butanamide] as the compound, how does the Triple point temperature [1] read?
Answer: 389.85 ± 1.2 K

Question: And the “Molar enthalpy of transition or fusion” value [2]?
Answer: 7.07 ± 0.239 kcal/mol

Reference: the NIST ThermoML archive (doi:10.1021/acs.jced.8b00720)
